Test system: EGFP reporter (7×TetO array, basal CMV promoter) in HEK293T reporter cell line
Assay: TAD-seq pooled activation screen of 60-aa fragments fused to PYL1
Assay type: cell-based, human
Conditions: for Hit high GFP: high GFP population (top 1%); for logFC high GFP / logFC medium GFP: log 2 fold change of counts, 100 μM ABA 48 hours; for logFC high GFP: sorted high GFP cells (top 1%) vs unsorted cells; for logFC medium GFP: sorted medium GFP cells (top 2-5%) vs unsorted cells; for Hit medium GFP: medium GFP population (top 2-5%); call rule not given here
Description: A fragment library of 75 activators identified in our screen was generated, using 60 amino-acid tiles every 20 aa such that every amino acid was represented by three different fragments (FIG. 3A). The pooled fragment library was fused to PYL1 and recruited to the same GFP reporter used in the original ORFeome screen (FIG. 3A). […] The GFP positive population was sorted into two independent replicates, and fragments in each population were quantified by sequencing. However, in contrast to the ORFeome screen, both high GFP cells (top 1%) and medium GFP cells (top 2-5%) were sorted to potentially identify transactivators of different strength.
Activation domain tiling library generation. A tiling library was generated from 75 proteins identified as activators in the ORFeome screen. Oligonucleotides containing a 5′ adapter […] (SEQ ID NO: 23) and a 3′ adapter […] (SEQ ID NO: 24) to generate a 5′ adapter ([…]) (SEQ ID NO: 11) and a 3′ adapter ([…]) (SEQ ID NO: 12) were synthesized as pooled libraries (Twist Biosciences). 6×50 μl PCR reactions were set up using NEBNext Ultra II Q5 master mix (New England Biolabs) with 5 nM oligos as template. PCR conditions were optimized to find the lowest cycle with a clean visible product at the expected 300 bp length. The thermocycling condition was an initial 30 s at 98° C., then 2 cycles of 98° C. for 10 s, 63° C. for 20 s, and 72° C. for 15 s, followed by 10 more cycles of 98° C. for 10 s and 72° C. for 30 s with a final extension at 72° C. for 5 min. Primers were designed to have Gateway compatible flanking sequences. The resulting libraries were gel extracted by QIAgen gel extraction kit after loading on a 2% TAE gel for 2 hrs at 60V and subsequently cloned into pDONR221 using 20 separate BP reactions in total of 5 μl reactions. The entry plasmid pool was transformed after an overnight reaction into DHSalpha competent E. coli and incubated overnight on LB agar plates containing kanamycin ([…]). Colonies were collected and plasmid DNA purified. 20 LR reactions were then set up as described in the previous section. Each reaction was transformed into NEB 10-beta chemically competent E. coli and grown on LB agar plates containing carbenicillin ([…]) overnight at 30° C. Colonies were counted to ensure >200-fold coverage at each step of cloning, pooled and maxiprepped.
Pooled activation screens. ORFeome and transactivation tiling libraries tagged at the C-terminus with PYL1 were packaged into lentiviral particles. A clonal EGFP reporter cell line stably co-expressing ABI-dCas9 and a gRNA targeting the promoter were transduced at low multiplicity of infection (MOI) with approximately 30% cell survival after puromycin (1 μg/mL) selection. Untransduced cells under the same condition were fully eliminated. Sufficient cells were transduced to maintain >500 fold coverage of the libraries. Recruitment was induced by treating cells with 100 μM abscisic acid (ABA, Sigma) for 48 hours. In parallel, a control batch of cells were treated with equal total volume of DMSO. Cells were then washed in PBS, treated with dissociation buffer (1 mM EDTA, 10 mM KCl, 150 mM NaCl, 5 mM sodium bicarbonate, 0.1% glucose) and resuspended in flow buffer (5 mM EDTA, 25 mM HEPES pH 7, 1% BSA, PBS). High GFP population for each library, top 1% for ORFeome and two bins of top 1% and the next 4% for the TAD screen, were sorted and their genomic DNA directly extracted using QIAmp DNA Blood Mini Kit (QIAGEN).
TAD sequencing. Performed nested PCR on the purified genomic DNA using primers targeting T7 promoter and PYL1 of the backbone vector in the first step creating a ˜470 bp product. Products of the first reaction were then pooled and amplified for an additional 10 steps using primers targeting outside the Gateway sites creating a ˜300 bp product. Libraries were quantified on Qubit dsDNA Broad Range kit and paired-end sequenced on an Illumina MIseq with a custom PAGE-purified R1 sequencing primer. […]

Row | Substance | Hit high GFP | logFC high GFP | logFC medium GFP | Hit medium GFP
1 | ATF6-1: 60-aa TAD-seq fragment of ATF6 (MGEPAGVAGTMESPFSPGLFHRLDEDWDSALFAELGYFTDTDELQLEAANETYENNFDNL; listed as Homo sapiens) | hit | 3.145 | 1.563 | hit
2 | ATF6B-1: 60-aa TAD-seq fragment of ATF6B (MAELMLLSEIADPTRFFTDNLLSPEDWGLQNSTLYSGLDEVAEEQTQLFRCPEQDVPFDG; listed as Homo sapiens) | hit | 1.917 | 0.9931 | hit
3 | ATMIN-24: 60-aa TAD-seq fragment of ATMIN (NPGPDTQLPSGPAQNPGIDFDIEEFFSASNIQTQTEESELSTMTTEPVLESLDIETQTDF; listed as Homo sapiens) | – | 1.233 | 0.988 | hit
4 | ATMIN-32: 60-aa TAD-seq fragment of ATMIN (ETQTMSSGFETLGSLFFTSNETQTAMDDFLLADLAWNTMESQFSSVETQTSAEPHTVSNF; listed as Homo sapiens) | – | 0.6355 | 0.8198 | hit
5 | ATOH1-1: 60-aa TAD-seq fragment of ATOH1 (MSRLLHAEEWAEVKELGDHHRQPQPHHLPQPPPPPQPPATLQAREHPVYPPELSLLDSTD; listed as Homo sapiens) | – | 0.7218 | 0.9194 | hit
6 | ATXN7L3-2: 60-aa TAD-seq fragment of ATXN7L3 (QEIYADLVEDSCLGFCFEVHRAVKCGYFFLDDTDPDSMKDFEIVDQPGLDIFGQVFNQWK; listed as Homo sapiens) | – | 0.7654 | 0.8911 | hit
7 | ATXN7L3-4: 60-aa TAD-seq fragment of ATXN7L3 (FEIVDQPGLDIFGQVFNQWKSKECVCPNCSRSIAASRFAPHLEKCLGMGRNSSRIANRRI; listed as Homo sapiens) | – | 0.7641 | 0.7514 | hit
8 | BRD8-23: 60-aa TAD-seq fragment of BRD8 (KEECFRSGVAEAPVGSKAPSIDGKEELDLAEKMDIAVSYTGEELDFETVGDIIAIIEDKV; listed as Homo sapiens) | – | 0.5884 | 0.5915 | hit
9 | BRD8-24: 60-aa TAD-seq fragment of BRD8 (IDGKEELDLAEKMDIAVSYTGEELDFETVGDIIAIIEDKVDDHPEVLDVAAVEAALSFCE; listed as Homo sapiens) | hit | 1.593 | 1.566 | hit
10 | BTBD18-24: 60-aa TAD-seq fragment of BTBD18 (IDCREPYAFDTALLEQPCEAEEYRITSAAATSELEEILDFMLCGSDIEPPIGSLESPGAE; listed as Homo sapiens) | – | 1.246 | 0.8561 | hit
11 | BTBD18-25: 60-aa TAD-seq fragment of BTBD18 (EEYRITSAAATSELEEILDFMLCGSDIEPPIGSLESPGAEGCRTPTYHLTETGKNWIEGE; listed as Homo sapiens) | – | 1.471 | 1.413 | hit
12 | C3orf62-11: 60-aa TAD-seq fragment of C3orf62 (NHMCGHCQDSPFKEEAWALLMDKSPQKATDADPGSLKQAFDDHNIVETVLDLEEDYNVMT; listed as Homo sapiens) [Fragment C3orf62-11] | hit | 6.023 | −0.5261 | –
13 | C11orf74-1: 60-aa TAD-seq fragment of C11orf74 (MSAHMSGLEIMDEDQLIKDVLDKFLNCHEQTYDEEFLNTFTHLSQDLLLLPGEVEQDVST; listed as Homo sapiens) [Fragment C11orf74-1] | hit | 2.356 | 1.551 | hit
14 | CITED1-7: 60-aa TAD-seq fragment of CITED1 (LQNWDFGAQAGGAESLSPSAGAQSPAIIDSDPVDEEVLMSLVVELGLDRANELPELWLGQ; listed as Homo sapiens) | hit | 4.314 | 1.597 | hit
15 | CITED2-11: 60-aa TAD-seq fragment of CITED2 (MPASVAHVPAAMLPPNVIDTDFIDEEVLMSLVIEMGLDRIKELPELWLGQNEFDFMTDFV; listed as Homo sapiens) | hit | 6.165 | 0.9491 | –
16 | CSRNP1-28: 60-aa TAD-seq fragment of CSRNP1 (DNIEAPHFPLPGLSPPGDASSCFLESLMGFSEPAAEALDPFIDSQFEDTVPASLMEPVPV; listed as Homo sapiens) | – | 0.5029 | 0.6955 | hit
17 | DDIT3-1: 60-aa TAD-seq fragment of DDIT3 (MAAESLPFSFGTLSSWELEAWYEDLQEVLSSDENGGTYVSPPGNEEEESKIFTTLDPASL; listed as Homo sapiens) | hit | 2.373 | 1.502 | hit
18 | DDIT3-2: 60-aa TAD-seq fragment of DDIT3 (WYEDLQEVLSSDENGGTYVSPPGNEEEESKIFTTLDPASLAWLTEEEPEPAEVTSTSQSP; listed as Homo sapiens) | – | 1.138 | 1.28 | hit
19 | ELF4-1: 60-aa TAD-seq fragment of ELF4 (MAITLQPSDLIFEFASNGMDDDIHQLEDPSVFPAVIVEQVPYPDLLHLYSGLELDDVHNG; listed as Homo sapiens) | – | 0.6626 | 0.7287 | hit
20 | ELF4-2: 60-aa TAD-seq fragment of ELF4 (DDIHQLEDPSVFPAVIVEQVPYPDLLHLYSGLELDDVHNGIITDGTLCMTQDQILEGSFL; listed as Homo sapiens) | hit | 1.467 | 1.364 | hit
21 | FAM22F-19: 60-aa TAD-seq fragment of FAM22F (PRPQRPAETNAHLPPPRPQRPAETKVPEEIPPEVVQEYVDIMEELLGSHPGDTGEPEGQR; listed as Homo sapiens) | – | 0.9998 | 0.9884 | hit
22 | FAM22F-20: 60-aa TAD-seq fragment of FAM22F (PAETKVPEEIPPEVVQEYVDIMEELLGSHPGDTGEPEGQREKGKVEQPQEEDGITSDPGL; listed as Homo sapiens) | hit | 3.214 | 2.101 | hit
23 | FAM22F-22: 60-aa TAD-seq fragment of FAM22F (EKGKVEQPQEEDGITSDPGLLSYIDKLCSQEDFVTKVEAVIHPRFLEELLSPDPQMDFLA; listed as Homo sapiens) | hit | 4.76 | 2.325 | hit
24 | FAM22F-23: 60-aa TAD-seq fragment of FAM22F (LSYIDKLCSQEDFVTKVEAVIHPRFLEELLSPDPQMDFLALSQELEQEEGLTLAQLVEKR; listed as Homo sapiens) | hit | 5.822 | 0.2737 | –

Reference: patent publication US20240309360A1, “TRANS-ACTIVATORS AND METHODS AND USE THEREOF” (THE GOVERNING COUNCIL OF THE UNIVERSITY OF TORONTO, priority 2021, published 2024)
